US6858638B2, “Substituted indazoles, compositions containing them, method of production and use” (Aventis Pharma S.A., priority 2002, dated 2005)

Assays:
Assay type in all cases: biochemical
[1] = target: T1, human FAK (Homo sapiens, UniProt Q05397); assay: FAK autophosphorylation inhibition, time resolved fluorescence (HTRF) assay; details: 10 μM (values without asterisk); for inhibition at 10 µM: read-out: FAK % inhib at 10 μM
T1 construct: The complete cDNA of human FAK; made in house; host or cells: baculovirus expression system (vector pFastBac HTc)
T1 sequence (Q05397 whole entry): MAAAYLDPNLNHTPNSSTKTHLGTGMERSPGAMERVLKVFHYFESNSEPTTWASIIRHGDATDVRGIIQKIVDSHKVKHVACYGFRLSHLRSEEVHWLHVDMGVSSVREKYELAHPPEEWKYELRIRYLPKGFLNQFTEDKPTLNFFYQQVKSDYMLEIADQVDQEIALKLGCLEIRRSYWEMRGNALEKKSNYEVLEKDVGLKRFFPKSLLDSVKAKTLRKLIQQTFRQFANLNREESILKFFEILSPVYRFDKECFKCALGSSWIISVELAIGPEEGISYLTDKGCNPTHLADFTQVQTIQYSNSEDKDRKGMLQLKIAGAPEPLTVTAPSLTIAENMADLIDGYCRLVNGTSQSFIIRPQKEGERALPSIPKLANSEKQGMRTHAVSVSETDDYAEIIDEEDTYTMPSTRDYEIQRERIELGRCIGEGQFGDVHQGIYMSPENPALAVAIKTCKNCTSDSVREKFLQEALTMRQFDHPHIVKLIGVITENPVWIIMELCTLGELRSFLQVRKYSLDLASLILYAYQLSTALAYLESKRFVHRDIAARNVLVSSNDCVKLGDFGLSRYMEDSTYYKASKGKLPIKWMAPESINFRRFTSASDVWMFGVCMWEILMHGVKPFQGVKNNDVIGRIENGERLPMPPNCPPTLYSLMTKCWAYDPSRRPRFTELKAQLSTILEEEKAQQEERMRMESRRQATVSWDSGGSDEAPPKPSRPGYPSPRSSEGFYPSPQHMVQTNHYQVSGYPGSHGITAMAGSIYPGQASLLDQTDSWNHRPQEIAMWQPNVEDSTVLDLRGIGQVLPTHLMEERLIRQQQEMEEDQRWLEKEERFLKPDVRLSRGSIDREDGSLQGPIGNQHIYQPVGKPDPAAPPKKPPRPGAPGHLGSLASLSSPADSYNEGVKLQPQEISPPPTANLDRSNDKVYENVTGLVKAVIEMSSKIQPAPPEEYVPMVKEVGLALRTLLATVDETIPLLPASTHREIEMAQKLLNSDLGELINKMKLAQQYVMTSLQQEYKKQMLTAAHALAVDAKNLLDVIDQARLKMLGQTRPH
How it was run: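 Autophosphorylation was detected by europium-cryptate anti-pTyr and XL665 anti-His energy transfer, percent inhibition from the 665/620 ratio relative to no-compound wells. Enzyme: His-FAK full length, 6.6 µg/ml, incubated 1 h at 37 °C, pH 7.2, 15 µM ATP.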

[2] = target: T2, Aurora2 kinase (Homo sapiens, UniProt O14965); assay: Aurora2 kinase radioactivity scintillation assay using nickel chelate (NuMA substrate); details: 10 μM; for inhibition at 10 µM: read-out: Aurora2 % inhib at 10 μM
T2 construct: A complete recombinant Aurora2 enzyme; His tag (N); made in house; host or cells: E. coli
T2 sequence (O14965 1-403): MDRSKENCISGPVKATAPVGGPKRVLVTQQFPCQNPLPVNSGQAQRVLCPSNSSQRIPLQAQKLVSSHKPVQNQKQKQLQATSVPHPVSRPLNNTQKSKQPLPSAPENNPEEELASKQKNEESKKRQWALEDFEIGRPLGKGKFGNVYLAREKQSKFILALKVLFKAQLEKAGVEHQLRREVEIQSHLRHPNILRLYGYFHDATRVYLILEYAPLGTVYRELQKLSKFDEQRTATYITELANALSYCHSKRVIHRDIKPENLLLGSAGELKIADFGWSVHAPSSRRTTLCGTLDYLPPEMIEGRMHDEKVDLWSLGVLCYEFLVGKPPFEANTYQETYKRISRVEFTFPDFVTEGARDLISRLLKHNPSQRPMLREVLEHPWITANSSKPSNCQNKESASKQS
How it was run: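 Read-out is 33P incorporation into His-NuMA (Q1687-H2101, 0.5 μM) captured on nickel chelate, after 30 min at 37 °C with 0.02 μM His-Aurora2 and 1 μM ATP. Expressed as percentage inhibition of uncompounded control activity, background subtracted.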

[3] = target: T3, human IGF1R cytoplasmic domain (Homo sapiens, UniProt P08069); assay: IGF1R autophosphorylation inhibition, time resolved fluorescence (HTRF) assay; details: 10 μM; read-out: IGF1R % inhib at 10 μM
T3 construct: The human IGF1R cytoplasmic domain was cloned; made in house; host or cells: SF21 insect cells (baculovirus)
T3 sequence (P08069 960-1367 limits assumed): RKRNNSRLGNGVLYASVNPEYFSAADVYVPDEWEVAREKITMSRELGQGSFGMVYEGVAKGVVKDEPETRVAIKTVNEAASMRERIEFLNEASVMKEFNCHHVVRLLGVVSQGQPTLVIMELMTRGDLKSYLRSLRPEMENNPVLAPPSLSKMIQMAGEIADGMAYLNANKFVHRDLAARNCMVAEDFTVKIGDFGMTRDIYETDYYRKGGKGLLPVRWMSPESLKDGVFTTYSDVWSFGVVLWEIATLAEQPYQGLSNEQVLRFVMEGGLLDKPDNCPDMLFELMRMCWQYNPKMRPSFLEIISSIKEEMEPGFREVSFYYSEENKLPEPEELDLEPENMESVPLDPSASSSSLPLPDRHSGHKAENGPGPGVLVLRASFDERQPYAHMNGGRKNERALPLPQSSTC
How it was run: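 GST-tagged human IGF1R cytoplasmic domain from SF21 cells incubated with compound in 50 mM Hepes pH 7.5, 5 mM MnCl2, 50 mM NaCl, […] ATP. Autophosphorylation detected by HTRF (Eu-K anti-phosphotyrosine, XL665 anti-GST) after EDTA/KF stop; percentage inhibition versus no-compound control.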

CS(=O)(=O)c1ccccc1S(=O)(=O)Nc1ccc2[nH]nc(/C=C/c3ccc(F)cc3)c2c1 [Example 74, N-{3-[(E)-2-(4-Fluorophenyl)vinyl]-1H-indazol-5-yl}-2-methylsulfonylbenzenesulfonamide]
inhibition at 10 µM [1]: 99%
inhibition at 10 µM [2]: 99%
inhibition at 10 µM [3]: 95%

CS(=O)(=O)c1ccccc1S(=O)(=O)Nc1ccc2[nH]nc(/C=C/c3ccc(Cl)cc3)c2c1 [Example 76, N-{3-[(E)-2-(4-Chlorophenyl)vinyl]-1H-indazol-5-yl}-2-methylsulfonylbenzenesulfonamide]
inhibition at 10 µM [1]: 96%
inhibition at 10 µM [2]: 99%
inhibition at 10 µM [3]: 96%

COC(=O)/C=C/c1n[nH]c2ccc(NS(=O)(=O)c3ccccc3S(C)(=O)=O)cc12 [Example 79, Methyl (E)-3-[5(2-methylsulfonylbenzenesulfonylamino)-1H-indazol-3-yl]-acrylate]
inhibition at 10 µM [1]: 98%
inhibition at 10 µM [2]: 95%
inhibition at 10 µM [3]: 37%

CS(=O)(=O)c1ccccc1S(=O)(=O)Nc1ccc2[nH]nc(-c3nc4ccccc4[nH]3)c2c1 [Example 81, N-[3-(1H-Benzimidazol-2-yl)-1H-indazol-5-yl]-2-methylsulfonylbenzenesulfonamide]
inhibition at 10 µM [1]: 98%
inhibition at 10 µM [2]: 100%
inhibition at 10 µM [3]: 99%

O=S(=O)(Nc1ccc2[nH]nc(-c3cc4ccccc4[nH]3)c2c1)c1ccccc1OC(F)(F)F [Example 84, N-[3-(1H-Indol-2-yl)-1H-indazol-5-yl]-2-trifluoromethoxybenzenesulfonamide]
inhibition at 10 µM [1]: 90%
inhibition at 10 µM [2]: 100%
inhibition at 10 µM [3]: 94%

CS(=O)(=O)c1ccccc1S(=O)(=O)Nc1ccc2[nH]nc(Sc3ccccc3)c2c1 [Example 88, 2-Methylsulfonyl-N-(3-phenylsulfanyl-1H-indazol-5-yl)-benzenesulfonamide]
inhibition at 10 µM [1]: 21%
inhibition at 10 µM [2]: 55%
inhibition at 10 µM [3]: 82%

CS(=O)(=O)c1ccccc1S(=O)(=O)Nc1ccc2[nH]nc(C#Cc3ccccc3)c2c1 [Example 89, 2-Methylsulfonyl-N-(3-phenylethynyl-1H-indazol-5-yl)-benzenesulfonamide]
inhibition at 10 µM [1]: 92%
inhibition at 10 µM [2]: 92%
inhibition at 10 µM [3]: 90%

Cc1cc2[nH]nc(-c3ccccc3)c2cc1NS(=O)(=O)c1ccccc1S(C)(=O)=O [Example 92, 2-Methylsulfonyl-N-(6-methyl-3-phenyl-1H-indazol-5-yl)-benzenesulfonamide]
inhibition at 10 µM [1]: 27%
inhibition at 10 µM [2]: 70%
inhibition at 10 µM [3]: 62%

CS(=O)(=O)c1ccc(F)cc1S(=O)(=O)Nc1ccc2[nH]nc(-c3ccccc3)c2c1 [Example 93, 5-Fluoro-2-methylsulfonyl-N-(3-phenyl-1H-indazol-5-yl)-benzenesulfonamide]
inhibition at 10 µM [1]: 94%
inhibition at 10 µM [2]: 89%
inhibition at 10 µM [3]: 87%

Nc1ccc(S(=O)(=O)Nc2ccc3[nH]nc(-c4ccccc4)c3c2)cc1 [Example 94, 4-Amino-N-(3-phenyl-1H-indazol-5-yl)benzenesulfonamide]
inhibition at 10 µM [1]: 36%
inhibition at 10 µM [2]: 65%
inhibition at 10 µM [3]: 70%

CC(=O)Nc1ccc(S(=O)(=O)Nc2ccc3[nH]nc(-c4ccccc4)c3c2)cc1 [Example 95, N-[4-(3-Phenyl-1H-indazol-5-ylsulfamoyl)phenyl]acetamide]
FAK % inhib at 10 μM ([1]; 10 µM): 0%
Aurora2 % inhib at 10 μM [2]: 30%
inhibition at 10 µM [3]: 73%

O=S(=O)(Nc1ccc2[nH]nc(-c3ccccc3)c2c1)C1CCNCC1 [Example 100, N-(3-Phenyl-1H-indazol-5-yl)-piperidine-4-sulfonamide]
inhibition at 10 µM [1]: 94%
inhibition at 10 µM [2]: 44%
inhibition at 10 µM [3]: 13%

O=S(=O)(Nc1ccc2[nH]nc(-c3ccccc3)c2c1)c1ccccc1C(F)(F)F [Example 109, N-(3-Phenyl-1H-indazol-5-yl)-2-trifluoromethylbenzene-sulfonamide]
inhibition at 10 µM [1]: 61%
inhibition at 10 µM [2]: 100%
inhibition at 10 µM [3]: 81%

O=S(=O)(Nc1ccc2[nH]nc(-c3ccccc3)c2c1)c1cccs1 [Example 110, N-(3-Phenyl-1H-indazol-5-yl)-thiophene-2-sulfonamide]
inhibition at 10 µM [1]: 66%
inhibition at 10 µM [2]: 100%
inhibition at 10 µM [3]: 80%

O=S(=O)(Nc1ccc2[nH]nc(-c3ccccc3)c2c1)c1ccccc1 [Example 112, N-(3-Phenyl-1H-indazol-5-yl)benzenesulfonamide]
inhibition at 10 µM [1]: 75%
inhibition at 10 µM [2]: 100%
inhibition at 10 µM [3]: 84%

O=[N+]([O-])c1ccccc1S(=O)(=O)Nc1ccc2[nH]nc(-c3ccccc3)c2c1 [Example 113, 2-Nitro-N-(3-phenyl-1H-indazol-5-yl)benzenesulfonamide]
inhibition at 10 µM [1]: 73%
inhibition at 10 µM [2]: 100%
inhibition at 10 µM [3]: 81%

O=S(=O)(Nc1ccc2[nH]nc(-c3ccccc3)c2c1)c1ccc(F)cc1 [Example 117, 4-Fluoro-N-(3-phenyl-1H-indazol-5-yl)-benzenesulfonamide]
inhibition at 10 µM [1]: 53%
inhibition at 10 µM [2]: 100%
inhibition at 10 µM [3]: 56%

COc1ccc(OC)c(S(=O)(=O)Nc2ccc3[nH]nc(-c4ccccc4)c3c2)c1 [Example 131, 2,5-Dimethoxy-N-(3-phenyl-1H-indazol-5-yl)-benzenesulfonamide]
inhibition at 10 µM [1]: 64%
inhibition at 10 µM [2]: 97%
inhibition at 10 µM [3]: 51%

Cc1ccccc1S(=O)(=O)Nc1ccc2[nH]nc(-c3ccccc3)c2c1 [Example 132, 2-Methyl-N-(3-phenyl-1H-indazol-5-yl)-benzenesulfonamide]
inhibition at 10 µM [1]: 51%
inhibition at 10 µM [2]: 100%
inhibition at 10 µM [3]: 77%

O=C(O)c1cccc(S(=O)(=O)Nc2ccc3[nH]nc(-c4ccccc4)c3c2)c1 [Example 133, 3-(3-Phenyl-1H-indazol-5-ylsulfamoyl)benzoic acid]
inhibition at 10 µM [1]: 12%
inhibition at 10 µM [2]: 67%
inhibition at 10 µM [3]: 40%

O=S(=O)(Nc1ccc2[nH]nc(-c3ccccc3)c2c1)c1ccccc1F [Example 134, 2-Fluoro-N-(3-phenyl-1H-indazol-5-yl)-benzenesulfonamide]
inhibition at 10 µM [1]: 67%
inhibition at 10 µM [2]: 100%
inhibition at 10 µM [3]: 81%

O=S(=O)(Nc1ccc2[nH]nc(-c3ccccc3)c2c1)c1ccc(Cl)s1 [Example 135, 5-Chloro-N-(3-phenyl-1H-indazol-5-yl)thiophene-2-sulfonamide]
inhibition at 10 µM [1]: 50%
inhibition at 10 µM [2]: 100%
inhibition at 10 µM [3]: 65%

Cc1cccc(S(=O)(=O)Nc2ccc3[nH]nc(-c4ccccc4)c3c2)c1 [Example 138, 3-Methyl-N-(3-phenyl-1H-indazol-5-yl)-benzenesulfonamide]
inhibition at 10 µM [1]: 47%
inhibition at 10 µM [2]: 99%
inhibition at 10 µM [3]: 72%

O=S(=O)(Nc1ccc2[nH]nc(-c3ccccc3)c2c1)c1ccc(F)c(F)c1 [Example 152, 3,4-Difluoro-N-(3-phenyl-1H-indazol-5-yl)-benzenesulfonamide]
inhibition at 10 µM [1]: 71%
inhibition at 10 µM [2]: 92%
inhibition at 10 µM [3]: 67%

N#Cc1cccc(S(=O)(=O)Nc2ccc3[nH]nc(-c4ccccc4)c3c2)c1 [Example 154, 3-Cyano-N-(3-phenyl-1H-indazol-5-yl)-benzenesulfonamide]
inhibition at 10 µM [1]: 54%
inhibition at 10 µM [2]: 95%
inhibition at 10 µM [3]: 75%

COc1cccc(S(=O)(=O)Nc2ccc3[nH]nc(-c4ccccc4)c3c2)c1 [Example 156, 3-Methoxy-N-(3-phenyl-1H-indazol-5-yl)-benzenesulfonamide]
inhibition at 10 µM [1]: 56%
inhibition at 10 µM [2]: 99%
inhibition at 10 µM [3]: 68%

O=S(=O)(Nc1ccc2[nH]nc(-c3ccccc3)c2c1)c1cc(F)cc(F)c1 [Example 158, 3,5-Difluoro-N-(3-phenyl-1H-indazol-5-yl)-benzenesulfonamide]
inhibition at 10 µM [1]: 95%
inhibition at 10 µM [2]: 100%
inhibition at 10 µM [3]: 68%
